This assay relates to mildew of wheat (Erysiphe graminis forma specialis tritici). The assay is described as follows: Activity against mildew of wheat (protective spray on potted wheat seedlings). It is filed as in vivo. The conditions noted are these: wheat seedlings cv. Kanzler, inoculated 24 h after spraying, evaluated after 7 days. The method, then: The active compounds, separately or together, are formulated as a 10% emulsion in a mixture of 63% by weight of cyclohexanone and 27% by weight of emulsifier, and diluted with water to the desired concentration.
Evaluation is carried out by determining the infected leaf areas in percent. These percentages are converted into efficacies. The efficacy (W) is calculated as follows using Abbot's formula: W=(1−α/β)·100 α corresponds to the fungal infection of the treated plants in % and β corresponds to the fungal infection of the untreated (control) plants in %
An efficacy of 0 means that the infection level of the treated plants corresponds to that of the untreated control plants; an efficacy of 100 means that the treated plants were not infected.
The expected efficacies of the mixtures of the active compounds were determined using Colby's formula [F. S. Colby, Weeds 15, 20–22 (1967)] and compared with the observed efficacies. • Colby's formula: E=x+y−x·y/100 E expected efficacy, expressed in % of the untreated control, when using the mixture of the active compounds A and B at the concentrations a and b x efficacy, expressed in % of the untreated control, when using active compound A at a concentration of a y efficacy, expressed in % of the untreated control, when using active compound B at a concentration of b.
Leaves of potted wheat seedlings cv. “Kanzler” were sprayed to runoff point with an aqueous preparation of active compound which was prepared from a stock solution comprising 10% of active compound, 63% of cyclohexanone and 27% of emulsifier and, 24 h after the spray coating had dried on, dusted with spores of mildew of wheat (Erysiphe graminis forma specialis tritici). The test plants were subsequently placed in climatized chambers at 20–24° C. and 60–90% relative atmospheric humidity for 7 days. The extent of the development of the infection on the leaves was then determined visually.
The visually determined values for the percentage of infected leaf areas were converted into efficacies as % of the untreated control. An efficacy of 0 means the same degree of infection as in the untreated control, an efficacy of 100 means 0% infection. The expected efficacies for active compound combinations were determined using Colby's formula (Colby, S. R. “Calculating synergistic and antagonistic responses of herbicide combinations”, Weeds, 15 (1967), 20–22) and compared with the observed efficacies.

On to `CCCCCCCCCCCCCN1CC(C)OC(C)C1` (stereo not shown) [Compound I.c, Tridemorph], for which the “Efficacy in % of the untreated control” value amounted to 0% (0.25 ppm) and 0% (1 ppm).

For the molecule `CC(Cc1ccc(C(C)(C)C)cc1)CN1C[C@@H](C)O[C@@H](C)C1` (stereo partly shown) [Compound I.a, Fenpropimorph], the “Efficacy in % of the untreated control” value (0.25 ppm) was determined as 55%.

On to `CC(Cc1ccc(C(C)(C)C)cc1)CN1CCCCC1` (stereo not shown) [Compound I.b, Fenpropidin], for which the “Efficacy in % of the untreated control” value (0.25 ppm) is reported as 55%.

The values are drawn from patent US7026315B1, “Fungicide mixtures which are based on derivatives of morpholine or piperidine and derivatives oxime ether” (BASF Aktiengesellschaft, priority 1998, dated 2006).
